What was measured:
[1] = Predicted affinity for imidazoline receptor I2 by three field CoMFA model
[2] = as above; remark: listed apart in the source
[3] = as above; remark: listed apart in the source

Compound	Ki [2] [nM]	further results
c1ccc([C@H]2C[C@@H]2C2=NCCN2)cc1	–	Ki [1]: 251 nM
c1ccc([C@H]2C[C@H]2C2=NCCN2)cc1	724	–
c1ccc([C@@H]2C[C@H]2C2=NCCN2)cc1	–	Ki [3]: 23 nM
c1ccc([C@@H]2C[C@@H]2C2=NCCN2)cc1	331	–
